# Assays:
# C2BBE1 cells = conditions: reference values; cited from earlier work
# [1] = reference values; cited from earlier work
# P-gp = P-gp (Homo sapiens, UniProt P08183); experiment: Calcein-AM assay; conditions: for RFU/μg of protein: 30 minutes
# Protocol: Calcein-AM assay. To determine activity of the P-gp protein, calcein-AM assays were conducted.
# To determine the P-gp activity, cells were plated in 96-well tissue culture plates and cultured for 48. After 48 hours, cell culture media was removed and the cells were washed with phosphate buffered saline solution (PBS). After washing, cells were incubated with 1 μM calcein-AM for 30 minutes. […] After incubation with calcein-AM, the cells were rinsed with fresh control buffer and fluorescence was measured using a Fluo-star fluorescence plate reader (BMG Lab Technologies, N.C.) with excitation and emission filters set at wavelengths of 485 nm and 538 nm, respectively.
# Calcein-AM efflux is not mediated by BCRP. Therefore, any increase in calcein-AM uptake by the cells can be attributed to P-gp inhibition. The cells were plated in 96-well tissue culture plates and cultured for 48 hours. After 48 hours, cell culture media was removed and the cells were washed with phosphate buffered saline solution (PBS). After washing, cells were incubated with 1 μM calcein-AM for 30 minutes. […] After incubation with calcein-AM, the cells were rinsed with fresh control buffer and fluorescence was measured using a Fluo-star fluorescence plate reader (BMG Lab Technologies, N.C.) with excitation and emission filters set at wavelengths of 485 nm and 538 nm, respectively. The assay was carried out after each clone had been passaged 9 times.
# MRP2 mRNA = experiment: RT-PCR of MRP2 mRNA expression in transduced C2BBe1 cells; format: cell-based, human; conditions: for Percent decrease in ratio compared to control: MRP2 mRNA vs vector control; for Ratio of MRP2 band intensity to β-actin band intensity: RT-PCR, C2BBe1 cells, passages 2 to 5
# Protocol: (§1) RT-PCR. Total RNA was extracted from cells according to the following protocol. Cells were harvested from culture by centrifugation, resuspended in 1 ml of TRIzol® reagent (Invitrogen, Carlsbad, Calif.), and incubated at room temperature for 5 minutes with gentle shaking. The suspension was transferred to a 1.5 ml centrifuge tube, to which 200 μl of Chloroform was added, followed by an additional 5 minute incubation period with shaking. After incubation, the suspension was centrifuged at 12,000×g for 12 minutes at 4° C. The supernatant was transferred to a fresh, sterile 1.5 ml centrifuge tube, and supplemented with 0.5 ml of 2-propanaol per 1 ml of TRIzol reagent, and incubated for 10 minutes at room temperature. The mixture was then centrifuged at 12,000×g for an additional 12 minutes at 4° C. After centrifugation, the supernatant was removed and the pellet was washed with 75% ethanol. The sample was re-centrifuged at 7500×g for 5 minutes at 4° C., followed by the removal of the supernatant. The pellet was allowed to air dry at room temperature. The pellet was resuspended in pre-warmed (55° C.) nuclease-free water, and incubated at 55° C. for 10 minutes. RNA yield and purity were quantified by absorbance at 260 nm and 280 nm.
# (§2) RT-PCR mixtures were set up as 50 μl samples containing buffer, 1-2 μg of RNA, 10 μM of Forward primer, 10 μM of Reverse primer, Taq polymerase, and water. Primers to amplify human P-gylcoprotein were as follows: P-gp Forward 5′-[…]-3′ (SEQ ID NO: 9); and, P-gp Reverse 5′-[…]-3′ (SEQ ID NO: 10). Primers to amplify human MRP2 were as follows: MRP2 Forward 5′-[…]-3′ (SEQ ID NO: 11); and, MRP2 Reverse 5′-[…]-3′ (SEQ ID NO: 12). Primes to amplify human BCRP were as follows: BCRP Forward 5′-[…] 3′ (SEQ ID NO: 13); and, BCRP Reverse 5′-[…] 3′ (SEQ ID NO: 14). Human β-actin was amplified in parallel as a positive control using the following primers: β-actin Forward 5′-[…]-3′ (SEQ ID NO: 15); and, β-actin Reverse 5′-[…]-3′ (SEQ ID NO: 16).
# (§3) The PCR cycles proceeded in a programmable thermocycler with the following parameters: cDNA synthesis, 1 cycle, 55° C. for 30 minutes; denaturation, 1 cycle, 94° C. for 2 minutes; PCR amplification, 40 cycles of 94° C. for 15 seconds, 62° C. for 30 seconds, 72° C. for 1 minute; and, final extension, 1 cycle, 72° C. for 5 minutes. Amplification was confirmed by electrophoresis in 2% agarose gels.
# For this example, gene expression of MRP2 in C2BBe1 cells was determined by observing both the MRP2 mRNA content as well as the protein content of the cells following viral transduction. To examine mRNA content, total cellular RNA was harvested and amplified by RT-PCR using primers specific to the MRP2 gene (SEQ ID NO: 11 and 12). The RT-PCR products were then analyzed after separation by electrophoresis on a 2% agarose gel.
# Vector control (VC) cells were prepared from cells transducted with lentiviruses encoding a non-interfering nucleic acid sequence (SEQ ID NO 27), as described in Example 7. Methods were described in Example 1. […]
# P-gp mRNA = experiment: RT-PCR of P-gp mRNA expression in transduced C2BBe1 cells; format: cell-based, human; conditions: RT-PCR, shRNA/P-gp clone cells
# Protocol: as §1, §2, §3
# Gene expression of P-gp in knockdown cells (shRNA/P-gp clones #83, 84, 85, 86, and 87) was determined by observing P-gp mRNA content, protein content and protein functional activity. RT-PCR was used to determine the expression of the P-gp mRNA. Total cellular RNA was harvested and amplified using primers specific to P-gp mRNA. RT-PCR products were then separated by electrophoresis on a 2% agarose gel. It was determined that 4 of the 5 shRNA/P-gp clone cells contained substantially less P-gp mRNA than control C2BBe1 cells (FIG. 2, top panel). β-actin was amplified, in parallel, as a positive control, and its expression was not affected by the interfering shRNA (FIG. 2, bottom panel).
# Chain of P-gp (P08183 whole entry): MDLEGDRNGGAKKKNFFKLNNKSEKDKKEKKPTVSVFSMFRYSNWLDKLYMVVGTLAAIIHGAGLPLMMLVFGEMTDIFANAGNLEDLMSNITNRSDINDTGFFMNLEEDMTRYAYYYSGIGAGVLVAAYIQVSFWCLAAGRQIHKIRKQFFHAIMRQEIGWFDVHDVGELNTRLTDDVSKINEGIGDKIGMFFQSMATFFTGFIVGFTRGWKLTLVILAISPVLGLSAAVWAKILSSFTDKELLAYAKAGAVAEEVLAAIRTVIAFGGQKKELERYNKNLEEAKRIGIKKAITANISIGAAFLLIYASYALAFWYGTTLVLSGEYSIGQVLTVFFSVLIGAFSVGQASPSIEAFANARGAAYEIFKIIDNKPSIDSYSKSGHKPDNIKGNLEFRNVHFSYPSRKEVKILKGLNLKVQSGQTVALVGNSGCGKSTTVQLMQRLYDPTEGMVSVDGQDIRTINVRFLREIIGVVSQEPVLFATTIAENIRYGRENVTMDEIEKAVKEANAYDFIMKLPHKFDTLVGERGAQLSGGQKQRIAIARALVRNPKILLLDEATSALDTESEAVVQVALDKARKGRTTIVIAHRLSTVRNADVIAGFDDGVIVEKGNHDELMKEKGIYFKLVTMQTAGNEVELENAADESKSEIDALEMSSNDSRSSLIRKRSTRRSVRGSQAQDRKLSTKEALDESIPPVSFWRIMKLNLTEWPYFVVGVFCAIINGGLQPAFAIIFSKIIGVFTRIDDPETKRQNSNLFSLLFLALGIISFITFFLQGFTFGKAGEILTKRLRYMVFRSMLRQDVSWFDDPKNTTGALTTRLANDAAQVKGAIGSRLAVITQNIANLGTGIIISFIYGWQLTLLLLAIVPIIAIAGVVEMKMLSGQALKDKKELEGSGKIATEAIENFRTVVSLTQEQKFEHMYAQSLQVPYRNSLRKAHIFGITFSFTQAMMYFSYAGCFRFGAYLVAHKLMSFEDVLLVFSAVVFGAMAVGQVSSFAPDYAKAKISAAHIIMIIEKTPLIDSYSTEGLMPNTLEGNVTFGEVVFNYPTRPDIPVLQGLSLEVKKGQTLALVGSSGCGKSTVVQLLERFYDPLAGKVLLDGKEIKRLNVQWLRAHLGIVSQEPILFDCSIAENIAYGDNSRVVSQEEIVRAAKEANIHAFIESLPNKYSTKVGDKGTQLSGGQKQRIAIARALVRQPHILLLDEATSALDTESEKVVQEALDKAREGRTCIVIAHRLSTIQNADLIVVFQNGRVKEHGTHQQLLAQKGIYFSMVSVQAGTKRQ
compound,measurement,setting,value
1-Deamino-8-D-arginine,Papp in C2BBE1 cells,C2BBE1 cells,0.13 10^−6 cm/s
CC(=O)Oc1ccccc1C(=O)O [Acetylsalicylic acid],Papp in C2BBE1 cells,C2BBE1 cells,2.4 10^−6 cm/s
same,% Absorption in human,[1],100%
C=CCc1ccccc1OCC(O)CNC(C)C (stereo not drawn) [Alprenolol],Papp in C2BBE1 cells,C2BBE1 cells,40.5 10^−6 cm/s
same,% Absorption in human,[1],93%
NC(=O)CC[C@@H]1NC(=O)[C@H](Cc2ccccc2)NC(=O)[C@H](Cc2ccc(O)cc2)NC(=O)[C@@H](N)CSSC[C@@H](C(=O)N2CCC[C@H]2C(=O)N[C@@H](CCCN=C(N)N)C(=O)NCC(N)=O)NC(=O)[C@H](CC(N)=O)NC1=O [Arginine-vasopressin],Papp in C2BBE1 cells,C2BBE1 cells,0.14 10^−6 cm/s
same,% Absorption in human,[1],0%
C[C@]12C[C@H](O)[C@H]3[C@@H](CCC4=CC(=O)CC[C@@]43C)[C@@H]1CC[C@@H]2C(=O)CO [Corticosterone],% Absorption in human,[1],100%
C[C@@H]1C[C@H]2[C@@H]3CCC4=CC(=O)C=C[C@]4(C)[C@@]3(F)[C@@H](O)C[C@]2(C)[C@@]1(O)C(=O)CO [Dexamethasone],% Absorption in human,[1],100%
CCOC(=O)C1=C(C)NC(C)=C(C(=O)OC)C1c1cccc(Cl)c1Cl (stereo not drawn) [Felodipine],Papp in C2BBE1 cells,C2BBE1 cells,22.7 10^−6 cm/s
OC[C@@H](O)[C@@H](O)[C@H](O)[C@H](O)CO [Mannitol],Papp in C2BBE1 cells,C2BBE1 cells,0.18 10^−6 cm/s
same,% Absorption in human,[1],16%
COCCc1ccc(OCC(O)CNC(C)C)cc1 (stereo not drawn) [Metoptolol],Papp in C2BBE1 cells,C2BBE1 cells,27 10^−6 cm/s
O=C(O)c1cc(/N=N/c2ccc(O)c(C(=O)O)c2)ccc1O [Olsalazine],Papp in C2BBE1 cells,C2BBE1 cells,0.11 10^−6 cm/s
same,% Absorption in human,[1],2%
CC(=O)Nc1ccc(OCC(O)CNC(C)C)cc1 (stereo not drawn) [Practolol],Papp in C2BBE1 cells,C2BBE1 cells,0.9 10^−6 cm/s
CC(C)NCC(O)COc1cccc2ccccc12 (stereo not drawn) [Propranolol],Papp in C2BBE1 cells,C2BBE1 cells,41.9 10^−6 cm/s
CC(C)(C)NCC(O)c1cc(O)cc(O)c1 (stereo not drawn) [Terbutaline],Papp in C2BBE1 cells,C2BBE1 cells,0.38 10^−6 cm/s
same,% Absorption in human,[1],73%
C[C@]12CC[C@H]3[C@@H](CCC4=CC(=O)CC[C@@]43C)[C@@H]1CC[C@@H]2O [Testosterone],% Absorption in human,[1],100%
CC(=O)CC(c1ccccc1)c1c(O)c2ccccc2oc1=O (stereo not drawn) [Warfarin],Papp in C2BBE1 cells,C2BBE1 cells,38.3 10^−6 cm/s
CC(=O)OCOC(=O)CN(CC(=O)OCOC(C)=O)Cc1cc2c(cc1OC(C)=O)Oc1cc(OC(C)=O)c(CN(CC(=O)OCOC(C)=O)CC(=O)OCOC(C)=O)cc1C21OC(=O)c2ccccc21 [calcein-AM],Normalized Mean Fluorescence,P-gp; Vector Control cells,23.92
same,Normalized Mean Fluorescence in the Presence of CSA,P-gp; Vector Control cells,62.86
same,Normalized Mean Fluorescence in the Presence of CSA,"P-gp; shRNA/BCRP clone #801 cells, passage 20",72.31
same,Normalized Mean Fluorescence,"P-gp; shRNA/BCRP clone #801 cells, passage 20, normalized for total protein",5.08
same,% decrease of Calcein-AM compared to vector control,P-gp; shRNA/BCRP clone cell #798,0.33%
same,RFU/μg of protein,"P-gp; shRNA/BCRP clone cell #798, 1 μM calcein-AM, passaged 9 times",10.13 RFU/μg of protein
same,% decrease of Calcein-AM compared to vector control,P-gp; shRNA/BCRP clone cell #799,31.18%
same,RFU/μg of protein,"P-gp; shRNA/BCRP clone cell #799, 1 μM calcein-AM, passaged 9 times",6.99 RFU/μg of protein
same,% decrease of Calcein-AM compared to vector control,P-gp; shRNA/BCRP clone cell #800,58.07%
same,RFU/μg of protein,"P-gp; shRNA/BCRP clone cell #800, 1 μM calcein-AM, passaged 9 times",4.26 RFU/μg of protein
same,% decrease of Calcein-AM compared to vector control,P-gp; shRNA/BCRP clone cell #801,89.37%
same,RFU/μg of protein,"P-gp; shRNA/BCRP clone cell #801, 1 μM calcein-AM, passaged 9 times",1.08 RFU/μg of protein
same,% decrease of Calcein-AM compared to vector control,P-gp; shRNA/BCRP clone cell #802,33.42%
same,RFU/μg of protein,"P-gp; shRNA/BCRP clone cell #802, 1 μM calcein-AM, passaged 9 times",6.76 RFU/μg of protein
same,RFU/μg of protein,"P-gp; vector control cells, 1 μM calcein-AM",10.16 RFU/μg of protein
"shRNA/MRP2 #3: interfering RNA to MRP2, SEQ ID NO: 17, lentivirally transduced into C2BBe1 cells; clone #3 (CCGGCGTGTATAAATCCAGGACCAACTCGAGTTGGTCCTGGATTTATACACGTTTTTG; listed as Homo Sapiens)",Percent decrease in ratio compared to control,MRP2 mRNA,15.12%
same,Ratio of MRP2 band intensity to β-actin band intensity,MRP2 mRNA,0.57
"shRNA/MRP2 #4: interfering RNA to MRP2, SEQ ID NO: 18, lentivirally transduced into C2BBe1 cells; clone #4 (CCGGCCTGGTGGATAGCAACAATATCTCGAGATATTGTTGCTATCCACCAGGTTTTTG; listed as Homo Sapiens)",Percent decrease in ratio compared to control,MRP2 mRNA,15.31%
same,Ratio of MRP2 band intensity to β-actin band intensity,MRP2 mRNA,0.57
"shRNA/MRP2 #5: interfering RNA to MRP2, SEQ ID NO: 19, lentivirally transduced into C2BBe1 cells; clone #5 (CCGGGCATCTGAAGTCCCTGAGAAACTCGAGTTTCTCAGGGACTTCAGATGCTTTTTG; listed as Homo Sapiens)",Percent decrease in ratio compared to control,MRP2 mRNA,6.04%
same,Ratio of MRP2 band intensity to β-actin band intensity,MRP2 mRNA,0.63
"shRNA/MRP2 #6: interfering RNA to MRP2, SEQ ID NO: 20, lentivirally transduced into C2BBe1 cells; clone #6 (CCGGGCCGGTGGTCAGATTATCATTCTCGAGAATGATAATCTGACCACCGGCTTTTTG; listed as Homo Sapiens)",Percent decrease in ratio compared to control,MRP2 mRNA,−7.59%
same,Ratio of MRP2 band intensity to β-actin band intensity,MRP2 mRNA,0.72
"shRNA/MRP2 #7: interfering RNA to MRP2, SEQ ID NO: 21, lentivirally transduced into C2BBe1 cells; clone #7 (CCGGCCATAGCTTCATTCCTGAGTACTCGAGTACTCAGGAATGAAGCTATGGTTTTTG; listed as Homo Sapiens)",Percent decrease in ratio compared to control,MRP2 mRNA,19.53%
same,Ratio of MRP2 band intensity to β-actin band intensity,MRP2 mRNA,0.54
"shRNA/P-gp #83: shRNA to human P-gp, SEQ ID NO: 1, lentivirally transduced into C2BBe1 cells; clone #83 (CCGGCCGAACACATTGGAAGGAAATCTCGAGATTTCCTTCCAATGTGTTCGGTTTTTG; listed as Homo Sapiens)",P-gp function by intracellular calcein fluorescence,P-gp; transduced C2BBe1 cells vs Un-KD,significantly decreased
same,P-gp mRNA expression relative to control C2BBe1 cells,P-gp mRNA,significantly reduced
